Laboratory results: PubChem BioAssay (NCI)
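Protocol summary: plate cells (96-well), add compound at 5 concentrations, incubate 48 h, interpolate endpoints linearly. The concentration for full growth arrest is given as TGI.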

Columns and labels:
Experiment in all cases: NCI-60 cell line screen, 48 h
[1] = system: DU-145 prostate
[2] = system: HCC-2998 colon
[3] = system: HS 578T breast
[4] = system: HT29 colon
[5] = system: LOX IMVI melanoma
[6] = system: MOLT-4 leukemia
[7] = system: NCI-H23 lung
[8] = system: NCI/ADR-RES ovarian
[9] = system: OVCAR-8 ovarian
[10] = system: RXF 393 renal
[11] = system: SF-539 CNS
[12] = system: SK-MEL-5 melanoma
[13] = system: SK-OV-3 ovarian
[14] = system: SNB-75 CNS
[15] = system: SR leukemia
[16] = system: T-47D breast
[17] = system: UACC-257 melanoma
[18] = system: CCRF-CEM leukemia
[19] = system: RPMI-8226 leukemia
[20] = system: M19-MEL melanoma

## COC(=O)C1(c2ccc(N(C)C)cc2OC)CCCN(C(=O)Oc2ccccc2[N+](=O)[O-])CCc2c1[nH]c1ccccc21 (configuration not stated)
[1]
  TGI: > 100 µM
[2]
  TGI: > 100 µM
[3]
  TGI: > 100 µM
[4]
  TGI: > 100 µM
[5]
  TGI: > 100 µM
[6]
  TGI: > 100 µM
[7]
  TGI: > 100 µM
[8]
  TGI: > 100 µM
[9]
  TGI: > 100 µM
[10]
  TGI: > 100 µM
[11]
  TGI: > 100 µM
[12]
  TGI: > 100 µM
[13]
  TGI: > 100 µM
[14]
  TGI: > 100 µM
[15]
  TGI: > 100 µM
[16]
  TGI: > 100 µM
[17]
  TGI: > 100 µM

## C1=C2C3=[N+](CCCC3)CC2Cc2ccsc21 (configuration not stated)
[18]
  TGI: > 100 µM
[1]
  TGI: > 100 µM
[3]
  TGI: > 100 µM
[4]
  TGI: > 100 µM
[5]
  TGI: > 100 µM
[6]
  TGI: > 100 µM
[7]
  TGI: > 100 µM
[8]
  TGI: > 100 µM
[9]
  TGI: > 100 µM
[10]
  TGI: > 100 µM
[12]
  TGI: > 100 µM
[13]
  TGI: > 100 µM
[14]
  TGI: > 100 µM
[16]
  TGI: > 100 µM
[17]
  TGI: > 100 µM

## CC[N+](C)(CC)Cc1ccccc1[N+](=O)[O-]
[18]
  TGI: > 100 µM
[1]
  TGI: > 100 µM
[3]
  TGI: > 100 µM
[4]
  TGI: > 100 µM
[5]
  TGI: > 100 µM
[6]
  TGI: > 100 µM
[7]
  TGI: > 100 µM
[8]
  TGI: > 100 µM
[9]
  TGI: > 100 µM
[19]
  TGI: > 100 µM
[10]
  TGI: > 100 µM
[11]
  TGI: > 100 µM
[12]
  TGI: > 100 µM
[13]
  TGI: > 100 µM
[14]
  TGI: > 100 µM
[15]
  TGI: > 100 µM
[16]
  TGI: > 100 µM
[17]
  TGI: > 100 µM

## COc1ccc2c(c1)CCCc1cn[nH]c1-2
[18]
  TGI: > 100 µM
[2]
  TGI: > 100 µM
[4]
  TGI: > 100 µM
[5]
  TGI: > 100 µM
[20]
  TGI: > 100 µM
[6]
  TGI: > 100 µM
[7]
  TGI: > 100 µM
[8]
  TGI: > 100 µM
[9]
  TGI: > 100 µM
[10]
  TGI: > 100 µM
[11]
  TGI: > 100 µM
[12]
  TGI: > 100 µM
[13]
  TGI: > 100 µM
[14]
  TGI: > 100 µM
[17]
  TGI: > 100 µM

## C[N+](C)(N)CCC[N+](C)(C)N
[18]
  TGI: > 100 µM
[1]
  TGI: > 100 µM
[3]
  TGI: > 100 µM
[4]
  TGI: > 100 µM
[5]
  TGI: > 100 µM
[6]
  TGI: > 100 µM
[7]
  TGI: > 100 µM
[8]
  TGI: > 100 µM
[9]
  TGI: > 100 µM
[19]
  TGI: > 100 µM
[10]
  TGI: > 100 µM
[11]
  TGI: > 100 µM
[12]
  TGI: > 100 µM
[13]
  TGI: > 100 µM
[14]
  TGI: > 100 µM
[15]
  TGI: > 100 µM
[16]
  TGI: > 100 µM
[17]
  TGI: > 100 µM

## O=C(NCCCNC(=O)c1ccc2cc(O)c(O)cc2c1)c1ccc2cc(O)c(O)cc2c1
[18]
  TGI: 66.3 µM
[1]
  TGI: 82.2 µM
[2]
  TGI: 50.9 µM
[4]
  TGI: 81.2 µM
[5]
  TGI: 67.4 µM
[6]
  TGI: > 100 µM
[7]
  TGI: 63.5 µM
[8]
  TGI: > 100 µM
[9]
  TGI: > 100 µM
[19]
  TGI: > 100 µM
[10]
  TGI: 99.7 µM
[11]
  TGI: 35.6 µM
[12]
  TGI: 48.4 µM
[14]
  TGI: > 100 µM
[15]
  TGI: > 100 µM
[16]
  TGI: 90.6 µM
[17]
  TGI: > 100 µM

## Cc1cc(C)cc(Nc2nnc3n2S(=O)(=O)c2cc(C#N)c(Cl)cc2S3)c1
[18]
  TGI: 4.32 µM
[1]
  TGI: 12.5 µM
[3]
  TGI: 15.8 µM
[4]
  TGI: 4.98 µM
[5]
  TGI: 9.03 µM
[6]
  TGI: 52 µM
[7]
  TGI: 4.35 µM
[8]
  TGI: 6.51 µM
[10]
  TGI: 3.26 µM
[11]
  TGI: 3.97 µM
[12]
  TGI: 20.7 µM
[13]
  TGI: 21.9 µM
[14]
  TGI: 7.56 µM
[15]
  TGI: 3.42 µM
[16]
  TGI: 31.6 µM
[17]
  TGI: 3.32 µM

## C=C1CC[C@@]2(OC1)OC1C[C@H]3[C@@H]4CC=C5C[C@@H](O)CC(OC6OCC(OC(=O)[C@@H](O)[C@@H](C)CC)C(OC(C)=O)C6OC6OC(C)C(O)C(O)C6O)[C@]5(C)[C@H]4CC[C@]3(C)C1[C@@H]2C (some centres not stated)
[18]
  TGI: 3.43 µM
[1]
  TGI: 4.35 µM
[2]
  TGI: 2.96 µM
[3]
  TGI: > 10 µM
[4]
  TGI: > 10 µM
[5]
  TGI: 3.67 µM
[6]
  TGI: 3.54 µM
[7]
  TGI: 6.57 µM
[8]
  TGI: 6 µM
[9]
  TGI: 4.31 µM
[19]
  TGI: 4.89 µM
[10]
  TGI: 4.48 µM
[11]
  TGI: 5.21 µM
[12]
  TGI: 3.59 µM
[13]
  TGI: 3.57 µM
[14]
  TGI: 4.84 µM
[15]
  TGI: 4.4 µM
[16]
  TGI: > 10 µM
[17]
  TGI: 5.48 µM

## CCSc1nc(N2CCOCC2)c2cn[nH]c2n1
[18]
  TGI: > 100 µM
[1]
  TGI: > 100 µM
[2]
  TGI: > 100 µM
[3]
  TGI: > 100 µM
[4]
  TGI: > 100 µM
[5]
  TGI: > 100 µM
[6]
  TGI: > 100 µM
[7]
  TGI: > 100 µM
[8]
  TGI: > 100 µM
[9]
  TGI: > 100 µM
[19]
  TGI: > 100 µM
[10]
  TGI: > 100 µM
[11]
  TGI: > 100 µM
[12]
  TGI: > 100 µM
[13]
  TGI: > 100 µM
[14]
  TGI: > 100 µM
[15]
  TGI: > 100 µM
[16]
  TGI: > 100 µM
[17]
  TGI: > 100 µM

## CC(=O)[C@]1(O)Cc2c(O)c3c(c(O)c2C(OC2OC(C)C(O)C(O)C2F)C1)C(=O)c1ccccc1C3=O (some centres not stated)
[18]
  TGI: 0.0642 µM
[1]
  TGI: 45.8 µM
[2]
  TGI: 2.3 µM
[3]
  TGI: 1.62 µM
[5]
  TGI: 11.6 µM
[6]
  TGI: 0.0577 µM
[7]
  TGI: 0.303 µM
[8]
  TGI: 3.78 µM
[9]
  TGI: 16.1 µM
[19]
  TGI: 2.36 µM
[10]
  TGI: 1.89 µM
[11]
  TGI: 0.374 µM
[12]
  TGI: 0.68 µM
[13]
  TGI: 45.9 µM
[14]
  TGI: 0.837 µM
[16]
  TGI: 7.8 µM
[17]
  TGI: 2.38 µM

## Cc1ccc2nc3ccccc3c(C3C4C(=O)N(c5ccc(Br)cc5Cl)C(=O)C4ON3C(C(N)=O)c3ccccc3)c2c1 (configuration not stated)
[18]
  TGI: > 25 µM
[1]
  TGI: > 25 µM
[3]
  TGI: > 25 µM
[4]
  TGI: > 25 µM
[5]
  TGI: > 25 µM
[6]
  TGI: > 25 µM
[7]
  TGI: 6.86 µM
[9]
  TGI: > 25 µM
[10]
  TGI: > 25 µM
[11]
  TGI: > 25 µM
[12]
  TGI: > 25 µM
[13]
  TGI: > 25 µM
[14]
  TGI: > 25 µM
[15]
  TGI: > 25 µM
[16]
  TGI: > 25 µM
[17]
  TGI: > 25 µM
